Measured values as given in ChEMBL document CHEMBL1201862, “PubChem BioAssay data set” (2004).
Calls of active or inactive are those of the source.

Tests used:
[1] = ADAM10 inhibitors, peptide cleavage, dose response, biochemical, QFRET (AID 743254);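 note: ADAM10 enzyme with the DM2 quenched FRET peptide as substrate; EDANS fluorescence gain as the protease cuts the substrate; inhibitor potency against ADAM10 proteolytic activity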
[2] = target: Disintegrin and metalloproteinase domain-containing protein 17 (Homo sapiens, UniProt P78536); assay: ADAM17 protease inhibitors, dose response, counter-screen for ADAM10 exosite inhibitor project, biochemical, quenched FRET substrate (AID 743253)
Protein skinhead-1 = target: T1, Protein skinhead-1 (Caenorhabditis elegans, UniProt P34707); type: functional
T1 sequence (P34707 whole entry): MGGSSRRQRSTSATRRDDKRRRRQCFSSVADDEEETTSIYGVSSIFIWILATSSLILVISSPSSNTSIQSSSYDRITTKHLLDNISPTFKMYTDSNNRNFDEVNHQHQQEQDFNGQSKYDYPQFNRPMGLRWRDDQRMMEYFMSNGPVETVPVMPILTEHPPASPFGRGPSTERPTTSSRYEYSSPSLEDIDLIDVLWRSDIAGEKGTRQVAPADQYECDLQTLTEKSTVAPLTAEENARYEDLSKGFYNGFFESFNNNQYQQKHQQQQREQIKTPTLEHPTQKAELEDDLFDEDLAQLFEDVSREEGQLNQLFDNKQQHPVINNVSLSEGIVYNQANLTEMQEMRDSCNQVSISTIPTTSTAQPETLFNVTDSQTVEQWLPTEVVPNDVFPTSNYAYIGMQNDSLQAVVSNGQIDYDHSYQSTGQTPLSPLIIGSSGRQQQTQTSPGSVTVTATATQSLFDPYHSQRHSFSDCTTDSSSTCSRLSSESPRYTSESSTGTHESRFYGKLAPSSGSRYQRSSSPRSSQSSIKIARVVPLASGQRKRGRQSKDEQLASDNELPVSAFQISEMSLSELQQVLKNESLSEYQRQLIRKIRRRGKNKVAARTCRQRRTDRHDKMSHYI

[3] = target: T2, Oxysterols receptor LXR-beta (Homo sapiens, UniProt P55055); type: functional, cell-based;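 note: agonist activity at LXR measured by a cell-based luminescence readout across a dose range, run as a counterscreen for daf-12 agonists; HEK293 cells with Gal4-LXR fusion and GAL4-driven luciferase reporter; potency for activation of Gal4-LXR reporter so compounds are agonists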
T2 sequence (P55055 whole entry): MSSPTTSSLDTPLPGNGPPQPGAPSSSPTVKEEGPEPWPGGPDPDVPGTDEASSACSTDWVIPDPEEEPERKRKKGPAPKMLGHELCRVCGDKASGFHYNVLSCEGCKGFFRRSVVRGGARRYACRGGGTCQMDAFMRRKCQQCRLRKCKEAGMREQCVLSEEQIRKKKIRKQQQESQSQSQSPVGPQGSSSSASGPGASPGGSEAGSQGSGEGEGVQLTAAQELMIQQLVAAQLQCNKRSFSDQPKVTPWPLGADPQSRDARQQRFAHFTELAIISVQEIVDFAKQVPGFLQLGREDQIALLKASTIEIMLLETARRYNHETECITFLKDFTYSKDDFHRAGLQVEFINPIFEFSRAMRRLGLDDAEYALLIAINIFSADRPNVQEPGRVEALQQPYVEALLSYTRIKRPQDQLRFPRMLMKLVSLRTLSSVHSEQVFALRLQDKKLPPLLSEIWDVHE

Streptokinase A = target: T3, Streptokinase A (Streptococcus pyogenes serotype M1, UniProt P10520); assay: S. pyogenes streptokinase expression inhibitors, potency, dose response, plasminogen activation absorbance, OD405 (AID 1914); type: functional, Streptococcus pyogenes M1 GAS;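 note: secreted streptokinase activity via plasminogen activation per viability signal from cell pellet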
T3 sequence (P10520 whole entry): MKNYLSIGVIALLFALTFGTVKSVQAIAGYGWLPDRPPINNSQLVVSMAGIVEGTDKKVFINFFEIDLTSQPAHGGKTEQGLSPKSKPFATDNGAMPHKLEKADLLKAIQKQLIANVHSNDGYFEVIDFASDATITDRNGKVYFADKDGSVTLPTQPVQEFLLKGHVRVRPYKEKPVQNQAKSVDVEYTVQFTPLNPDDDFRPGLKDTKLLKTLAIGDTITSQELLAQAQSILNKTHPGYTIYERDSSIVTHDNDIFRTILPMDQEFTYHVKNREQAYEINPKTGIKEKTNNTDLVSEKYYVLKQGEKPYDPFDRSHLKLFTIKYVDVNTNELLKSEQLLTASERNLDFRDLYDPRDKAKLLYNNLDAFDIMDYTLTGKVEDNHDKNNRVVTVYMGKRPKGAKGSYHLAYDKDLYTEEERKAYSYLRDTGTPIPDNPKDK

[4] = test system: Streptococcus sp. 'group A'; assay: growth inhibition of control SK(-) GAS strain, dose response, counter-screen for streptokinase expression inhibitor project, luminescence, kanamycin, BacTiterGlo, confirmation (AID 1900); type: functional, organism-based
[5] = target: T4, Short transient receptor potential channel 4 (Mus musculus, UniProt Q9QUQ5); assay: mouse TRPC4 channel activators, dose response, cell-based, HEK293 TRPC4/mu-opioid, Fluo-4 calcium (AID 434937); type: functional
T4 sequence (Q9QUQ5 whole entry): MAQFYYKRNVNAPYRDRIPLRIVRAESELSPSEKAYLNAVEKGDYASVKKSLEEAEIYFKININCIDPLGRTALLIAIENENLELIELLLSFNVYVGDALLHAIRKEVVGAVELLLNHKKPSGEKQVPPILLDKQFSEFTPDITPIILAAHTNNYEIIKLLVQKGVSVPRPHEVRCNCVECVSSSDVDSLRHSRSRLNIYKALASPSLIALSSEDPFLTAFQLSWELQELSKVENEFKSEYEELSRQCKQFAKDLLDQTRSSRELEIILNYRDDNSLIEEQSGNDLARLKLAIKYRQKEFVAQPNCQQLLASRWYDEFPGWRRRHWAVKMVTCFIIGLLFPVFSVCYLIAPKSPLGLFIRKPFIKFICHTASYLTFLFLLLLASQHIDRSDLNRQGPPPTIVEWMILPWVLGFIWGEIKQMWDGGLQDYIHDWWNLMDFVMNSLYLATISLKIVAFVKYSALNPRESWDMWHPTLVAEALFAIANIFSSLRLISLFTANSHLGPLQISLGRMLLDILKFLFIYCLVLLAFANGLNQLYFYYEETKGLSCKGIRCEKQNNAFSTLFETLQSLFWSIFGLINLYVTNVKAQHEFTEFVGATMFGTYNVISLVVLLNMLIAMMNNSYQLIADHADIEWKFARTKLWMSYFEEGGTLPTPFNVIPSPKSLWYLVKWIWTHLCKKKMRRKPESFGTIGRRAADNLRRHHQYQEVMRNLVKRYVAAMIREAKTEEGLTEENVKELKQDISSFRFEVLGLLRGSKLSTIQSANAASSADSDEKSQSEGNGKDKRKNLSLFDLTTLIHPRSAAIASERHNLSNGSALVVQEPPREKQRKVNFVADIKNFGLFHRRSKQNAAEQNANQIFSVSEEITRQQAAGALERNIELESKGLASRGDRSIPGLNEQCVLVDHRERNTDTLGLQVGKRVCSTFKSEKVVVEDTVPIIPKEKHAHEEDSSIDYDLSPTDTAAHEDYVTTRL

Streptococcus = assay: Group A Streptococcus viability loss, dose response, counter-screen for streptokinase expression inhibitor project, luminescence, BacTiterGlo (AID 1915); type: functional, organism-based;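 note: potency for reduction of bacterial viability or growth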
Albumin = Albumin (Bos taurus, UniProt P02769); assay: Counterscreen for inhibitors of T-cell receptor (TCR)-CD3 interaction: Fluorescence-based biochemical high throughput dose response assay to identify inhibitors of T-cell receptor (TCR)-CD3 interaction using a TAMRA-labeled BSA probe.; type: functional
[6] = target: T5, Heat shock factor protein 1 (Mus musculus, UniProt P38532); assay: inhibition of MG132-induced HSE-luciferase signal, confirmation, cell-based, NIH3T3, luminescence, dose retest (AID 2382); type: functional;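 note: NIH3T3 fibroblasts with HSF1-driven luciferase reporter stressed by proteasome inhibitor MG132; luminescence from HSF1-driven luciferase expression after 8 hours of MG132 stress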
T5 sequence (P38532 whole entry): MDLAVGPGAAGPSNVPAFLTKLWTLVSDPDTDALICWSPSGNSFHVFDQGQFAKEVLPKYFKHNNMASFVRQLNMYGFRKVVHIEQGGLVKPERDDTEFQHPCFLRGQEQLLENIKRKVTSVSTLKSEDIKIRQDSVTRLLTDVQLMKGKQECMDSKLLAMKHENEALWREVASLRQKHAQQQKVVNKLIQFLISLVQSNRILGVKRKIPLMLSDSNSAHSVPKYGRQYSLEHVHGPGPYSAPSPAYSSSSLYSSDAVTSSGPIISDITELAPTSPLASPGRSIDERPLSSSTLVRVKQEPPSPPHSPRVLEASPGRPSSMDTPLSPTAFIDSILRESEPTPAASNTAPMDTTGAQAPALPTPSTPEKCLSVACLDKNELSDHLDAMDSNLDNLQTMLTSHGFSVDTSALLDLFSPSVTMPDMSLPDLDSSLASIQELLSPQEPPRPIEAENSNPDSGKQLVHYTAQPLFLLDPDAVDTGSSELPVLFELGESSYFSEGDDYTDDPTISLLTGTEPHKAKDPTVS

Protein RecA = target: T6, Protein RecA (Mycobacterium tuberculosis, UniProt P9WHJ3); assay: Fluorescence Cell-Free Homogeneous Dose Retest to Identify Inhibitors of RecA-Intein Splicing Activity. [Related pubchem assays (depositor defined):AID2097, AID2223, AID489010, AID492950]; type: functional
T6 sequence (P9WHJ3 whole entry): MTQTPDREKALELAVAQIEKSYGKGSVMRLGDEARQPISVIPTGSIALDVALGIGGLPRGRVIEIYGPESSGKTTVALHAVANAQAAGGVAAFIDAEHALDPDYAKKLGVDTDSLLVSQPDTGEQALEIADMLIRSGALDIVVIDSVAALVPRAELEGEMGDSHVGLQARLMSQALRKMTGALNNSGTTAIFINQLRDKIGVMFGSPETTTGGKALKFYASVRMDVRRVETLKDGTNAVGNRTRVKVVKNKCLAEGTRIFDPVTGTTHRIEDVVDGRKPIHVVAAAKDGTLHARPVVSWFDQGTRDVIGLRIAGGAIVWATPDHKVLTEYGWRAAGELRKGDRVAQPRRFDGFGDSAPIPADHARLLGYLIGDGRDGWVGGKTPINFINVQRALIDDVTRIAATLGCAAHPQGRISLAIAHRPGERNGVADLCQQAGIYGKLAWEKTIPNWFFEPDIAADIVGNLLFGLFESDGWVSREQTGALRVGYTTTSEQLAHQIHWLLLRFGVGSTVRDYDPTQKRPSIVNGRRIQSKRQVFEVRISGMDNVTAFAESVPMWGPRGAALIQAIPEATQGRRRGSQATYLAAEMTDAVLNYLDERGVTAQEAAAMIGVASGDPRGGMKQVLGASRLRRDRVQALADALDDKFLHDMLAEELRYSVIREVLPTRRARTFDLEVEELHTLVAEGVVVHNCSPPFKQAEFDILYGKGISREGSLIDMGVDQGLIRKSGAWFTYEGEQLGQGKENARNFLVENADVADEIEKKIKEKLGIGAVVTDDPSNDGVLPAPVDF

[7] = target: T7, Replicative DNA helicase DnaB (Mycobacterium tuberculosis, UniProt P9WMR3); assay: DnaB intein splicing inhibitors, dose response, biochemical, cell-free fluorescence (AID 449749); type: functional
T7 sequence (P9WMR3 whole entry): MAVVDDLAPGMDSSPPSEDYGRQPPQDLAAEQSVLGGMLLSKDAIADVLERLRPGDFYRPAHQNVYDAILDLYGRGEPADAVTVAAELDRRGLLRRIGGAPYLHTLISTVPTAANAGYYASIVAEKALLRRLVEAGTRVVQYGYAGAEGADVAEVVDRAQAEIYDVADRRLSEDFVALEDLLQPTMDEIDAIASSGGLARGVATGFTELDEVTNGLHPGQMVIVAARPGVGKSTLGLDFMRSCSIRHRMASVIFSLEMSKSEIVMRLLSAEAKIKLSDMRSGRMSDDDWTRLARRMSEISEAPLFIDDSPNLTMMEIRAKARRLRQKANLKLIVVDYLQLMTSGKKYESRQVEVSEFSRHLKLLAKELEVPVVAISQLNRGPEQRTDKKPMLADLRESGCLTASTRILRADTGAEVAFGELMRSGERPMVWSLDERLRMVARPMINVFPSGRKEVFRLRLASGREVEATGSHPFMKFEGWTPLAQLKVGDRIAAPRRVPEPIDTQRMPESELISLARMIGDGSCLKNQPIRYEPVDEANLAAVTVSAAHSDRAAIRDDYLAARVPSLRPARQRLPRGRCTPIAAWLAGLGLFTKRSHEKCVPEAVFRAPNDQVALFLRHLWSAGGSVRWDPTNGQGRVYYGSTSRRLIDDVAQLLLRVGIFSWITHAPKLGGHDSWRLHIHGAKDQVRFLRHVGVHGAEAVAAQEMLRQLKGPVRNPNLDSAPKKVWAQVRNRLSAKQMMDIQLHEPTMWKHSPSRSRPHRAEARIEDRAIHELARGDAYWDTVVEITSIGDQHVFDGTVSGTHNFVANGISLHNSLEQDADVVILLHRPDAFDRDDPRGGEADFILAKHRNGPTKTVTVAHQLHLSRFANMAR

Protein Wnt-3a = Protein Wnt-3a (Mus musculus, UniProt P27467); assay: SAR analysis of small molecule antagonists of Gli-SUFU in a Wnt3a luminescent reporter assay.; type: functional
[8] = HEK293T cytotoxicity, dose response, cytotoxicity control for miR-122 modulator project, cell-based, inhibitor set, cherry-pick, set 2 (AID 720697); type: functional

Disintegrin and metalloproteinase domain-containing protein 17, sequence (P78536 whole entry, the tested form may be a part): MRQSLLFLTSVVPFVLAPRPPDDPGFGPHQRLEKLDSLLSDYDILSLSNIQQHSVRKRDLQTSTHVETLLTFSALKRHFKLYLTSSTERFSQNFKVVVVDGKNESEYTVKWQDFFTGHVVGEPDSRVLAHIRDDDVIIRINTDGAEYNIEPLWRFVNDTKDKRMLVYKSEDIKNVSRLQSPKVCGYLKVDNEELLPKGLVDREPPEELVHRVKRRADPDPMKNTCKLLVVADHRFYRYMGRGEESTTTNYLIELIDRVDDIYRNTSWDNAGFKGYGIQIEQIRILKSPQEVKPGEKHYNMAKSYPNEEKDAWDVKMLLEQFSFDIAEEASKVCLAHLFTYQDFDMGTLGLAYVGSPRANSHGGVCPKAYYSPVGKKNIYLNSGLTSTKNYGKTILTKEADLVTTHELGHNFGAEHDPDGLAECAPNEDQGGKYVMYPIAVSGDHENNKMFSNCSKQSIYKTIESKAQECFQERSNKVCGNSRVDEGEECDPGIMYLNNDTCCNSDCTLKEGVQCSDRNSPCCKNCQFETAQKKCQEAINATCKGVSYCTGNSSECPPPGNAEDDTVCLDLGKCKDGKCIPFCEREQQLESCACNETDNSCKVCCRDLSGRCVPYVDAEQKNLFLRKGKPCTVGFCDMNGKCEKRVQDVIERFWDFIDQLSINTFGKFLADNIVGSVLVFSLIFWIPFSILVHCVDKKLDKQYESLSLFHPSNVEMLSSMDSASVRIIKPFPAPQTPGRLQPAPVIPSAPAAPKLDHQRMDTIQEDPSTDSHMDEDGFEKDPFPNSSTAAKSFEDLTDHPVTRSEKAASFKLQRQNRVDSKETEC
Protein Wnt-3a, sequence (P27467 whole entry): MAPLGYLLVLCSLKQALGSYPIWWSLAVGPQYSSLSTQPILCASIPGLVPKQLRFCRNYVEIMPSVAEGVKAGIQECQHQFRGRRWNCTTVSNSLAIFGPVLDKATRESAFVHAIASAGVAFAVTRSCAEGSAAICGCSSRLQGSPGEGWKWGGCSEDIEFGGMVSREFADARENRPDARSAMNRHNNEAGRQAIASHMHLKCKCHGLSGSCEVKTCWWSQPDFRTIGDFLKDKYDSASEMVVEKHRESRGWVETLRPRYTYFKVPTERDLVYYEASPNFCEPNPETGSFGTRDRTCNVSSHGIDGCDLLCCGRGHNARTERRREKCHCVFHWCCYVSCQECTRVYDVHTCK
Albumin, sequence (P02769 whole entry): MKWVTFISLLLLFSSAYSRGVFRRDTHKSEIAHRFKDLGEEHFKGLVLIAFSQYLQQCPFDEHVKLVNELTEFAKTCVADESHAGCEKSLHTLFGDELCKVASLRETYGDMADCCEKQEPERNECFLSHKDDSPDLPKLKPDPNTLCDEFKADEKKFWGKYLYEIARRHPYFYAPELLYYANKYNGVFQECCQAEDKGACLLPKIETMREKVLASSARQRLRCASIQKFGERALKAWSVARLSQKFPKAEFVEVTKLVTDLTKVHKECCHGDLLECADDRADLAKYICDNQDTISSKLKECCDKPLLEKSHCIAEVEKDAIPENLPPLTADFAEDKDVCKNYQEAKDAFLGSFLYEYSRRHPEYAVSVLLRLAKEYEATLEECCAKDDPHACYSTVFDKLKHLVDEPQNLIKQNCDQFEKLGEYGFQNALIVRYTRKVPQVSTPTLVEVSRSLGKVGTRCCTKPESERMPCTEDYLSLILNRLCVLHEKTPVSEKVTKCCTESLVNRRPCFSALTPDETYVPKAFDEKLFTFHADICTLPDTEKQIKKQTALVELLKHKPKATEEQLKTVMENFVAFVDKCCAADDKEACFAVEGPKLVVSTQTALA

## CN(C)c1ccc(C(CNS(=O)(=O)c2ccc(F)c(F)c2)c2c[nH]c3ccccc23)cc1 (stereo not drawn)
[1]
  IC50: > 7.72 µM (active)
[2]
  IC50: > 69.5 µM (inactive)

## Clc1ccc(OCCSc2ncccn2)c(Br)c1
Protein skinhead-1
  IC50: 40.4 µM (active)
[3]
  EC50: > 67.5 µM (inactive)

## COc1ccc(C(=O)NNC(=S)NC(=O)c2cccs2)cc1
Streptokinase A
  EC50: > 150 µM (not active)
[4]
  EC50: 3.71 µM (active)
[5]
  EC50: 10.6 µM (active)
Streptococcus
  EC50: 15.1 µM (active)
Albumin
  IC50: > 94 µM (inactive)
[6]
  EC50: > 195 µM (not active)

## CCOC(=O)c1ccc(N2C(=O)c3[nH]nc(-c4ccco4)c3C2c2ccc([N+](=O)[O-])cc2)cc1 (stereo not drawn)
[1]
  IC50: 17 µM (inactive)
Protein RecA
  EC50: 56.2 µM (active)
[2]
  IC50: > 69.5 µM (inactive)
[7]
  AC50: 2.92 µM (active)

## CCOC(=O)c1sc2nc3c(cc2c1N)COC(C)(CC)C3 (stereo not drawn)
[3]
  EC50: > 67.5 µM (inactive)

## O=C(Nc1cc(N2CCCCC2)ncn1)c1ccc(Cl)cc1
Protein Wnt-3a
  IC50: > 21.8 µM (inactive)

## O=C(Nc1cc(N2CCCCC2)ncn1)c1ccccc1F
Protein Wnt-3a
  IC50: < 0.0426 µM (active)

## C/C=C/c1ccc([C@@H]2[C@@H](CO)N[C@@H]2CN(CC)C(=O)CN2CCOCC2)cc1
[8]
  AC50: 0.431 µM (active)
